The values below come from paper PMC4139061, “Structural basis of nucleoside and nucleoside drug selectivity by concentrative nucleoside transporters” (eLife, 2014).

The Kd is the equilibrium constant for the complex coming apart. Lower therefore signals tighter binding. Broadly, the Km is the substrate concentration at which the rate is half of its maximum.

“And” between values parts separate entries of the source, which are not always exact repeats. Equal entries are not always repeated.

The target in assay [1] is T1, vcCNT (Vibrio cholerae, UniProt Q9KPL5). Nature of the assay: biochemical. The class given is binding. As to the method:
The fluorescence anisotropy after each addition was measured. Each titration was performed at least three times. The data for the three titrations were simultaneously fit to a one-site competitive binding model based off of Wang's method ([Wang, 1995]) using nonlinear least-squares analysis in GraphPad Prism to obtain a dissociation constant and standard error.

In the next assay the test system is hCNTs. The conditions noted are these: cited from earlier work.
For the next assay, the target named is hCNT3 (375L/446V) (Homo sapiens, UniProt Q9HAS3, L446V/V375L). Description: two-electrode voltage-clamp total charge in Xenopus oocytes expressing hCNT3 (375L/446V). The class given is cell-based. Particulars: 400 μM nucleoside; hCNT3 (375L/446V)-expressing Xenopus oocytes; mean of Exp. 1-11. The text has this: In the paradigm of the alternating-access mechanism of sodium-coupled symporters ([Krishnamurthy et al., 2009]), substrate release is achieved by the transition from the inward-facing occluded to the inward-facing open state (Figure 6C).
Sequence of hCNT3 (375L/446V) (Q9HAS3 whole entry V375L/L446V, the tested form may be a part): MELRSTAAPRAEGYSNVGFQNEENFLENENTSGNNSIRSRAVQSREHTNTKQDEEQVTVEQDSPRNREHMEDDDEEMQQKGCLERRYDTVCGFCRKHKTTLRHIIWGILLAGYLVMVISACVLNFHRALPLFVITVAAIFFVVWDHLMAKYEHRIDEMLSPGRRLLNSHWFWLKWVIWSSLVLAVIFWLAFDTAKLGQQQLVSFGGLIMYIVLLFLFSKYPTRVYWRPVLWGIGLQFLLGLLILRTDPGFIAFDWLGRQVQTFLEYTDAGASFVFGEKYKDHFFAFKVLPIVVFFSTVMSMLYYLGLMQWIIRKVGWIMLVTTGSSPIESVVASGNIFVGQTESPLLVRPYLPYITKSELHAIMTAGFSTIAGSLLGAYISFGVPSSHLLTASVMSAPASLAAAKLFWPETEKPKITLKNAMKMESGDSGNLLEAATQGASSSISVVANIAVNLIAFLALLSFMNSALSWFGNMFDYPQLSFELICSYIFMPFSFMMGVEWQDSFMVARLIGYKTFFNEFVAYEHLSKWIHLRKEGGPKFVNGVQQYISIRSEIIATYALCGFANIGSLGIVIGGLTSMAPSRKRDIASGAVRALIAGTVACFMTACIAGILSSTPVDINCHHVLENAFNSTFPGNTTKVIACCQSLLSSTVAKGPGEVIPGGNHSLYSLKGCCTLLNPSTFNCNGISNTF
(§1) Figure 6. […] (A) Model of hCNT3 nucleo-pocket. […] (B) Model of hCNT1 nucleo-pocket. […] (C) Hypothetical alternating-access mechanism of vcCNT. A cartoon representation of the different conformational states along the transport cycle is depicted. The transport domain (including HP1, HP2, TM4b, and TM7b) and TM6 are shown as cylinders. […] The nucleo-pocket in the inward-occluded conformation (bottom right) is located between TM6 and TM4 and is marked with a green star. The inward-occluded conformation is derived from the crystal structures of vcCNT. All other conformations are purely hypothetical. The transition between inward- and outward-facing conformations has been proposed to be achieved by a rigid-body movement of the transport domain across TM6 ([Johnson et al., 2012]). Extracellular and intracellular gating likely involves slight rearrangements of HP2/TM4b and HP1/TM7b, respectively. […] See Figure 6—source data 1 for total charge source data. DOI: http://dx.doi.org/10.7554/eLife.03604.024 Figure 6—source data 1. Total charge data. Total charge transported (μC) was calculated as the area under the curve of the current trace after application of the indicated nucleoside to hCNT-expressing Xenopus oocytes. Each row represents a separate experiment done using a different oocyte. The ratios of the total charge transported for the nucleosides are shown in the last columns.
The genes coding for the three hCNTs and vcCNT were cloned into a pGEM-HE vector. Plasmids were linearized using either SphI or NheI, and mRNA was transcribed using the mMESSAGE mMACHINE T7 Transcription Kit (Ambion, Grand Island, NY). […]
The oocyte-recording chamber was gravity-perfused with ND96 buffer at a rate of 2 ml/min. Membrane currents were measured using an Oocyte Clamp (OC-725C; Warner Instruments, Hamden, CT). […]

A further assay deals with T2, hCNT3 (Homo sapiens, UniProt Q9HAS3).
T2 sequence (Q9HAS3 1-691): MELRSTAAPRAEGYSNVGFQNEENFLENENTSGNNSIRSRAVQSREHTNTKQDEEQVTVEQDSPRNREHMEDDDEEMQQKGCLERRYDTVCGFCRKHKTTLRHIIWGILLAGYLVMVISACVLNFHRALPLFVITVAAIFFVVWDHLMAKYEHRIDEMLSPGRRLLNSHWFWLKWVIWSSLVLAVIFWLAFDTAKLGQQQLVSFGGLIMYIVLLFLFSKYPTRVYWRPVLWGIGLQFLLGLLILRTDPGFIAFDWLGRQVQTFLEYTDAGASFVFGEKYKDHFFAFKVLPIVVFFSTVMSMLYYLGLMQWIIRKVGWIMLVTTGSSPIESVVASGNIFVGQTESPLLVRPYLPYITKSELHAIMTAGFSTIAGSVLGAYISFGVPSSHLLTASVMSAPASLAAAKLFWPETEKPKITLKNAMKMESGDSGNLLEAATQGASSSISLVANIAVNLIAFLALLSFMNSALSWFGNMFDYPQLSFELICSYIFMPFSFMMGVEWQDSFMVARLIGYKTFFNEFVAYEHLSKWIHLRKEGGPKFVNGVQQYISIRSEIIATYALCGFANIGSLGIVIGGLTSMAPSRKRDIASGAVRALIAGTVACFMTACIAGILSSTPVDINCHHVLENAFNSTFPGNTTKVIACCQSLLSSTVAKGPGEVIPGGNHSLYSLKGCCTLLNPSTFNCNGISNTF
Nature of the assay: two-electrode voltage-clamp of Na+ currents / total charge in Xenopus oocytes expressing hCNT3. Format: cell-based. The text has this: (§2) To detect nucleoside transport by hCNTs, we turned to two-electrode voltage-clamp electrophysiological recording. Because hCNTs are Na^+-nucleoside symporters, one can measure the current generated by the Na^+ transport that is coupled with nucleoside transport. We injected Xenopus oocytes with mRNA coding for each of the hCNTs and measured inward Na^+ currents elicited by the addition of different nucleosides to the extracellular side.
(§3) The genes coding for the three hCNTs and vcCNT were cloned into a pGEM-HE vector. Plasmids were linearized using either SphI or NheI, and mRNA was transcribed using the mMESSAGE mMACHINE T7 Transcription Kit (Ambion, Grand Island, NY). Defolliculated Xenopus laevis oocytes were purchased from Ecocyte Bioscience (Austin, TX). Individual oocytes were injected with 40 ng of mRNA using a 10-μl microdispenser (Drummond Scientific, Broomall, PA) fitted with a tapered glass pipette tip and incubated at 17 °C for 4–5 days in ND96 buffer (96 mM NaCl, 2 mM KCl, 1 mM MgCl2, 1.8 mM CaCl2, and 5 mM HEPES pH 7.5) with 0.1% penicillin and streptomycin before recording.
(§4) The oocyte-recording chamber was gravity-perfused with ND96 buffer at a rate of 2 ml/min. Membrane currents were measured using an Oocyte Clamp (OC-725C; Warner Instruments, Hamden, CT). Individual oocytes were penetrated with two microelectrodes filled with 3 M KCl (0.5–1.0 MΩ). All electrophysiological experiments were conducted at room temperature. The OC-725C Oocyte Clamp was computer-interfaced via an Axon Digidata 1550 and controlled by Axoscope software (Molecular Devices, Sunnyvale, CA). The current signals were filtered at 20 Hz and sampled at intervals of 20 ms. The signals were filtered at 0.5 Hz by use of pCLAMP 10.4 software for data presentation. […] Cells were discarded if resting membrane potentials were unstable or more positive than −30 mV. Oocyte membrane potentials were clamped at −90 mV for holding potentials to measure transporter-generated currents. All data are shown as means ± SEM.
A general note: Two-electrode voltage clamp holds a large cell at a set potential and records current.

For another assay, the target named is hCNT2 (Homo sapiens, UniProt O43868). Description: two-electrode voltage-clamp of Na+ currents in Xenopus oocytes expressing hCNT2. The class given is cell-based. Particulars: data not shown.
Sequence of hCNT2 (O43868 whole entry): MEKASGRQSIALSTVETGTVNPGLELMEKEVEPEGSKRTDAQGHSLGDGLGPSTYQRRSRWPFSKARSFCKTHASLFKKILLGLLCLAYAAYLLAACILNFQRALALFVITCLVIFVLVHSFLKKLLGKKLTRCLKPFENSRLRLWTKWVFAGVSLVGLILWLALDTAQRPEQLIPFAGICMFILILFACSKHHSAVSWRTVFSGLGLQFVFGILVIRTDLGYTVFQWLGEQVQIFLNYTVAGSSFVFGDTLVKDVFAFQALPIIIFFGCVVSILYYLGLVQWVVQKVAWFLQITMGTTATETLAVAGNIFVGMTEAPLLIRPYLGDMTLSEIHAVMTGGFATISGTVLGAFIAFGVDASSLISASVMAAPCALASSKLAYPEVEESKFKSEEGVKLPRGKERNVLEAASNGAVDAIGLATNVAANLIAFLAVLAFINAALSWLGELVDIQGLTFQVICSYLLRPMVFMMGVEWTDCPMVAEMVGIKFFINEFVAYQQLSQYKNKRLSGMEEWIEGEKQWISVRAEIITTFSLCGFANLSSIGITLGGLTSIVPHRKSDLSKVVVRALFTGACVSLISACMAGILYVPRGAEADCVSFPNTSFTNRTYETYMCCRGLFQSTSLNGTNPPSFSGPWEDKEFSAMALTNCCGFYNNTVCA
From the text: as §2, §3
The oocyte-recording chamber was gravity-perfused with ND96 buffer at a rate of 2 ml/min. Membrane currents were measured using an Oocyte Clamp (OC-725C; Warner Instruments, Hamden, CT). Individual oocytes were penetrated with two microelectrodes filled with 3 M KCl (0.5–1.0 MΩ). […]

The target in the next assay is hCNT1 (353V/424L) (Homo sapiens, UniProt O00337, L353V/V424L). Description: two-electrode voltage-clamp total charge in Xenopus oocytes expressing hCNT1 (353V/424L). The class given is cell-based. The conditions noted are these: 400 μM nucleoside, hCNT1 (353V/424L)-expressing Xenopus oocytes.
Sequence of hCNT1 (353V/424L) (O00337 whole entry L353V/V424L): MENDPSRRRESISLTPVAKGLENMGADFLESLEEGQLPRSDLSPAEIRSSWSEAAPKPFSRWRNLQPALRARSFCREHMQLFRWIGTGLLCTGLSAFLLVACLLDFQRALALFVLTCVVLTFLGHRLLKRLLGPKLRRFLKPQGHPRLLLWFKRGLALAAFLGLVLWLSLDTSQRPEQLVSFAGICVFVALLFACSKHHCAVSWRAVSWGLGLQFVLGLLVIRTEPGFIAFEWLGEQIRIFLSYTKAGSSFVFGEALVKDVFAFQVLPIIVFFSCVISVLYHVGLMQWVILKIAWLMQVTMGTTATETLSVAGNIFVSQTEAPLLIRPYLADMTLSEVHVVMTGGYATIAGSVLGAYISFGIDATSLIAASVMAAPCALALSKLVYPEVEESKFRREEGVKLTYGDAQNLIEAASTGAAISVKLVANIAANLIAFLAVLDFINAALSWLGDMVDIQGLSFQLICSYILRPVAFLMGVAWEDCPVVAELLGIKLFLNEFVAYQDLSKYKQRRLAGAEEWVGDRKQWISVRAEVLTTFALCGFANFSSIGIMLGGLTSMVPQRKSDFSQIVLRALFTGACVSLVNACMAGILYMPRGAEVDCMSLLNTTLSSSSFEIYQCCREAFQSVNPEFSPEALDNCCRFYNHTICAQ
From the text: as §1, §3
The oocyte-recording chamber was gravity-perfused with ND96 buffer at a rate of 2 ml/min. Membrane currents were measured using an Oocyte Clamp (OC-725C; Warner Instruments, Hamden, CT). Individual oocytes were penetrated with two microelectrodes filled with 3 M KCl (0.5–1.0 MΩ). All electrophysiological experiments were conducted at room temperature. The OC-725C Oocyte Clamp was computer-interfaced via an Axon Digidata 1550 and controlled by Axoscope software (Molecular Devices, Sunnyvale, CA). The current signals were filtered at 20 Hz and sampled at intervals of 20 ms.

In the next assay the target is T3, hCNT1 (Homo sapiens, UniProt O00337).
T3 sequence (O00337 1-649): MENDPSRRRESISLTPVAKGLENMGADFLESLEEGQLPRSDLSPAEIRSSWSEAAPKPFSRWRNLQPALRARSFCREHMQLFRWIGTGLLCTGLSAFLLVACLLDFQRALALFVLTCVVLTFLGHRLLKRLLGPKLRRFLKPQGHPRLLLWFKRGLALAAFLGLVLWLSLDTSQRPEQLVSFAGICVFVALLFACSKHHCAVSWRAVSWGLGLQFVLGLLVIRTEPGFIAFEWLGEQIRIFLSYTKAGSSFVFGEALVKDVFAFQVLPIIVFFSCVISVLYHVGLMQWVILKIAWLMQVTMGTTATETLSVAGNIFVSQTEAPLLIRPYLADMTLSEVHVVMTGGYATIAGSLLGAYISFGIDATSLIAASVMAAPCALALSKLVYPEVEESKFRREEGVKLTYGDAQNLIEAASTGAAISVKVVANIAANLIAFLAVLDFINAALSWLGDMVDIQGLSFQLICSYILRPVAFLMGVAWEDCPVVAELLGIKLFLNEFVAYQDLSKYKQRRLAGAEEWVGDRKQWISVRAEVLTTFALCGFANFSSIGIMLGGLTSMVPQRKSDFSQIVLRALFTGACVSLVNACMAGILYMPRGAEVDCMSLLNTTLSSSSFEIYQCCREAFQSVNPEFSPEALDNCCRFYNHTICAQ
Nature of the assay: two-electrode voltage-clamp of Na+ currents / total charge in Xenopus oocytes expressing hCNT1. The class given is cell-based. The conditions noted are these: 200 μM nucleoside; hCNT1-expressing Xenopus oocytes; mean of Exp. 1-11.
From the text: as §2, §3, §4

Assay [2] has as its target T1, vcCNT. Description: biochemical. Format: binding. Particulars: KD.

T1 sequence (Q9KPL5 entry or part of it): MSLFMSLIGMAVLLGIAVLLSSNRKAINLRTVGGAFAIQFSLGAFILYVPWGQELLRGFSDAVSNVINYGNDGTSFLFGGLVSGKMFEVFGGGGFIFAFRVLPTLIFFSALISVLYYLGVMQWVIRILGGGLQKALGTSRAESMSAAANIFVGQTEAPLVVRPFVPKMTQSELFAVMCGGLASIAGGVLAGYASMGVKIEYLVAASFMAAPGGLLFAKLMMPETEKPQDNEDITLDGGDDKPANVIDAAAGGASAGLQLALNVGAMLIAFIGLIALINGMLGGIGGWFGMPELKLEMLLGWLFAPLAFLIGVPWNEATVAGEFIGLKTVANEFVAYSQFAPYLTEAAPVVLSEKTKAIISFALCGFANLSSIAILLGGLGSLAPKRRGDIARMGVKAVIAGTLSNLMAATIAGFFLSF

For the compound `O=c1ccn([C@H]2C[C@H](O)[C@@H](CO)O2)c(=O)[nH]1` [2′-deoxyuridine], at vcCNT [1], binding was characterised by a dissociation constant (Kd) of 170 ± 10 µM.

On vcCNT [1], `Cc1cn([C@@H]2O[C@H](CO)[C@@H](O)[C@H]2O)c(=O)[nH]c1=O` [5-methyluridine] registered a Kd of 61 ± 7 µM.

In turn, `NC(=O)c1ncn([C@@H]2O[C@H](CO)[C@@H](O)[C@H]2O)n1` [ribavirin] yielded a Kd on vcCNT [1] of 1530 µM.

`O=c1ccn([C@@H]2O[C@H](CO)C[C@H]2O)c(=O)[nH]1` [3′-deoxyuridine] returned a Kd at vcCNT [1] of more than 2800 µM.

As for `O=c1[nH]c(=O)n([C@@H]2O[C@H](CO)[C@@H](O)[C@H]2O)cc1I` [5-iodouridine], the Kd on vcCNT [1] was found to be 58 ± 5 µM.

The compound `O=c1[nH]c(=O)n([C@@H]2O[C@H](CO)[C@@H](O)[C@H]2O)cc1Cl` [5-chlorouridine] had a Kd on vcCNT [1] of 14 ± 1 µM.

As to `Nc1ccn([C@@H]2O[C@H](CO)[C@@H](O)[C@@H]2O)c(=O)n1` [cytarabine], in the assay with hCNTs (ref Clarke et al., 2006), the “binding and transport by hCNTs” value is “no significant binding and transport”.

As to `C[C@H]1O[C@@H](n2ccc(=O)[nH]c2=O)[C@H](O)[C@@H]1O` [5'-deoxyuridine], the dissociation constant Kd on vcCNT [1] was more than 2800 µM.

On vcCNT [1], `Cn1c(=O)ccn([C@@H]2O[C@H](CO)[C@@H](O)[C@H]2O)c1=O` [3-methyluridine] gave a Kd of 520 ± 80 µM.

`O=c1ncccn1[C@@H]1O[C@H](CO)[C@@H](O)[C@H]1O` [zebularine]: binding on vcCNT [1] was characterised by a dissociation constant (Kd) of 120 ± 5 µM. The “loss of binding affinity relative to uridine” value at vcCNT [1] (fold, vcCNT) is recorded as “threefold”.

Take `Nc1ccn([C@@H]2O[C@H](CO)[C@@H](O)C2(F)F)c(=O)n1` [gemcitabine]: the “Total charge transported, Mean” value is reported as 5.697 μC on hCNT3 (375L/446V); 7.084 μC at hCNT3 (200 μM nucleoside, hCNT3-expressing Xenopus oocytes, mean of Exp. 1-14); 0.692 μC at hCNT1 (353V/424L) (mean of Exp. 1-8); 0.127 μC at hCNT1. Besides, on hCNT3 (hCNT3-expressing oocytes, 200 μM), the “Na+ current on addition of nucleoside” value was “induced Na^+ currents”. In addition, at hCNT2, the “transport by hCNT2” value was “transported neither compound”. Also, the “KD higher than that for cytidine” value on vcCNT [1] is recorded as approximately 22 fold. Besides, the Total charge transported at hCNT1 (353V/424L) (single oocyte, listed as Gem) is 0.743 μC and 0.542 μC and 0.572 μC and 0.858 μC and 0.563 μC and 0.586 μC and 0.813 μC.

Take `Nc1ncnc2c1ncn2[C@@H]1O[C@H](CO)[C@@H](O)[C@H]1O` [adenosine]: the Kd at vcCNT [1] amounted to 470 ± 100 µM.

For `Cc1cc2cn([C@@H]3O[C@H](CO)[C@@H](O)[C@H]3O)c(=O)nc2[nH]1` [pyrrolo-cytidine, reference compound], at vcCNT [2], the Kd was 0.9 µM and 0.94 µM.

Regarding `O=c1ccn([C@@H]2O[C@H](CO)[C@@H](O)[C@H]2O)c(=O)[nH]1` [uridine], the Km in the assay on hCNTs (reported Km values, ref Molina-Arcas et al., 2009) is 22 to 80 µM.

`O=c1[nH]c(=O)n([C@@H]2O[C@H](CO)[C@@H](O)[C@H]2O)cc1F` [5-fluorouridine] displayed a Kd on vcCNT [1] of 16 ± 1 µM. The “KD lower than the KD for uridine” value at vcCNT [1] (fold, vcCNT) was “twofold”.
